Assay results published in ChEMBL document CHEMBL5143595, “Expanding the structure-activity relationship of cytotoxic diphenyl macrocycles” (Bioorg Med Chem Lett, 2022).

Columns and labels:
[1] = Antiproliferative activity against African green monkey COS-7 cells assessed as inhibition of cell growth at 10 uM incubated for 48 hrs by SRB assay relative to control; format: toxicity, cell-based; details: chlorocebus aethiops, read-out: Activity
[2] = test system: SK-LU-1; assay: Antiproliferative activity against human SK-LU-1 cells assessed as inhibition of cell growth at 10 uM incubated for 48 hrs by SRB assay relative to control; format: functional; set-up: scale not given: the % may be the effect or the level left
[3] = test system: U-251; assay: Antiproliferative activity against human U-251 cells assessed as inhibition of cell growth at 10 uM incubated for 48 hrs by SRB assay relative to control; format: functional; set-up: scale not given: the % may be the effect or the level left
[4] = test system: PC-3; assay: Antiproliferative activity against human PC-3 cells assessed as inhibition of cell growth at 10 uM incubated for 48 hrs by SRB assay relative to control; format: functional; set-up: scale not given: the % may be the effect or the level left
[5] = test system: K562; assay: Antiproliferative activity against human K562 cells assessed as inhibition of cell growth at 10 uM incubated for 48 hrs by SRB assay relative to control; format: functional; set-up: scale not given: the % may be the effect or the level left
[6] = test system: HCT-15; assay: Antiproliferative activity against human HCT-15 cells assessed as inhibition of cell growth at 10 uM incubated for 48 hrs by SRB assay relative to control; format: functional; set-up: scale not given: the % may be the effect or the level left
[7] = test system: MCF7; assay: Antiproliferative activity against human MCF7 cells assessed as inhibition of cell growth at 10 uM incubated for 48 hrs by SRB assay relative to control; format: functional; set-up: scale not given: the % may be the effect or the level left
[8] = test system: K562; assay: Antiproliferative activity against human K562 cells assessed as inhibition of cell growth incubated for 48 hrs by SRB assay; format: functional, cell-based; details: K562, 48 h
[9] = test system: SK-LU-1; assay: Antiproliferative activity against human SK-LU-1 cells assessed as inhibition of cell growth incubated for 48 hrs by SRB assay; format: functional, cell-based; details: SK-LU-1, 48 h
[10] = test system: U-251; assay: Antiproliferative activity against human U-251 cells assessed as inhibition of cell growth incubated for 48 hrs by SRB assay; format: functional, cell-based; details: U-251, 48 h

SMILES | inhibition at 48 h, 10 µM [1] [%] | Activity [2] [%] | Activity [3] [%] | Activity [4] [%] | Activity [5] [%] | Activity [6] [%] | Activity [7] [%] | IC50 [8] [µM] | IC50 [9] [µM] | IC50 [10] [µM]
CCCCCCCCCCNC(=O)C(c1ccco1)N1CCCCN(CC(=O)NC(C)(C)C)C(=O)c2cccc(c2)-c2cccc(c2)C1=O (racemic) | 21.6 | 25.3 | 25.5 | 25.8 | 28 | 26 | 25.7 | – | – | –
CCCCCCCCCCCCNC(=O)C(c1ccc(O)cc1OC)N1CCCCN(CC(=O)NC(C)(C)C)C(=O)c2cccc(c2)-c2cccc(c2)C1=O (racemic) | 26.1 | 45.1 | 48.5 | 37.6 | 60.9 | 27.3 | 38.9 | – | – | –
CCCCCCCCCCCCNC(=O)C(c1ccc(OC)cc1)N1CCCCN(CC(=O)NC(C)(C)C)C(=O)c2cccc(c2)-c2cccc(c2)C1=O (racemic) | 33 | 37.8 | 50.1 | 46.2 | 56.1 | 22 | 23.6 | – | – | –
CCCCCCCCCCCCNC(=O)C(c1ccoc1)N1CCCCN(CC(=O)NC(C)(C)C)C(=O)c2cccc(c2)-c2cccc(c2)C1=O (racemic) | 27.5 | 32.3 | 27.5 | 48.9 | 48.8 | 34.3 | 66.1 | – | – | –
CCCCCCCCCCNC(=O)C(c1ccc(F)cc1)N1CCCCN(CC(=O)NC(C)(C)C)C(=O)c2cccc(c2)-c2cccc(c2)C1=O (racemic) | 24.3 | 31.8 | 19.3 | 15.1 | 64 | 67.2 | 47.3 | – | – | –
CCCCCCCCCCCCNC(=O)C(c1ccc([N+](=O)[O-])cc1)N1CCCCN(CC(=O)NC(C)(C)C)C(=O)c2cccc(c2)-c2cccc(c2)C1=O (racemic) | 17.5 | 45.2 | 34.5 | 17.1 | 29 | 22.8 | 31.2 | – | – | –
CCCCCCCNC(=O)CN1CCCCN(CC(=O)NC(C)(C)C)C(=O)c2cccc(c2)-c2cccc(c2)C1=O | 7.6 | 88.6 | 99.2 | 97.2 | 79.3 | 77.9 | 70.9 | 8.2 | 4.7 | –
CCCCCCCCCCNC(=O)C(c1ccoc1)N1CCCCN(CC(=O)NC(C)(C)C)C(=O)c2cccc(c2)-c2cccc(c2)C1=O (racemic) | 22.8 | 18.8 | 27.5 | 35 | 36.6 | 38.5 | 29.5 | – | – | –
CCCCCCCCCCCCNC(=O)C(c1ccccc1)N1CCCCN(CC(=O)NC(C)(C)C)C(=O)c2cccc(c2)-c2cccc(c2)C1=O (racemic) | 21.1 | 28.5 | – | 32.6 | 41.3 | 27.7 | 29.5 | – | – | –
CCCCCCCCNC(=O)CN1CCCCN(CC(=O)NC(C)(C)C)C(=O)c2cccc(c2)-c2cccc(c2)C1=O | 19.7 | 9.6 | 20.5 | 46.5 | 24.4 | 26.7 | 31.7 | – | – | –
CCCCCCCCCCCCNC(=O)C(c1ccc(SC)cc1)N1CCCCN(CC(=O)NC(C)(C)C)C(=O)c2cccc(c2)-c2cccc(c2)C1=O (racemic) | 35.5 | 45.6 | 20 | 28.5 | 34.9 | 18.3 | 45 | – | – | –
CCCCCCCCCCCCNC(=O)C(c1cc(OC)c(OC)c(OC)c1)N1CCCCN(CC(=O)NC(C)(C)C)C(=O)c2cccc(c2)-c2cccc(c2)C1=O (racemic) | 25.6 | 34.4 | 11.4 | 33.9 | 24 | 31.5 | – | – | – | –
CCCCCCCCCCCCNC(=O)C(c1ccc(C)cc1)N1CCCCN(CC(=O)NC(C)(C)C)C(=O)c2cccc(c2)-c2cccc(c2)C1=O (racemic) | 34.8 | 32.4 | 48 | 21.1 | 40.7 | 19.9 | 4.8 | – | – | –
CCCCCCCCCCCCNC(=O)C(c1ccc(F)cc1)N1CCCCN(CC(=O)NC(C)(C)C)C(=O)c2cccc(c2)-c2cccc(c2)C1=O (racemic) | 40.8 | 18.8 | 76.9 | 21.3 | 59.6 | 42.9 | 41.5 | – | – | –
CCCCCCCCCNC(=O)CN1CCCCN(CC(=O)NC(C)(C)C)C(=O)c2cccc(c2)-c2cccc(c2)C1=O | 52.4 | 45.3 | 16 | 66.9 | 44 | 55.1 | 45.6 | – | – | –
CCCCCCCCCCNC(=O)CN1CCCCN(CC(=O)NC(C)(C)C)C(=O)c2cccc(c2)-c2ccc(O)c(c2)C1=O | 41.8 | 27.7 | 49.3 | 19.5 | 55.3 | 28.6 | 27.1 | – | – | –
CCCCCCCCCCCCNC(=O)C(c1ccc(C(F)(F)F)cc1)N1CCCCN(CC(=O)NC(C)(C)C)C(=O)c2cccc(c2)-c2cccc(c2)C1=O (racemic) | 38 | 76.5 | 47.2 | 18.6 | 100 | 30.3 | 75.3 | – | – | –
CCCCCCCCCCCCNC(=O)CN1CCCCN(CC(=O)NC(C)(C)C)C(=O)c2cccc(c2)-c2cccc(c2)C1=O | – | – | – | – | – | – | – | 4 | 7.6 | 5.9
CCCCCCCCCCCCNC(=O)C(c1ccco1)N1CCCCN(CC(=O)NC(C)(C)C)C(=O)c2cccc(c2)-c2cccc(c2)C1=O (racemic) | 35.8 | 34.9 | 21.9 | 13.5 | 19.8 | 26.8 | 51.3 | – | – | –
CCCCCCCCCCNC(=O)CN1CCCCN(CC(=O)NC(C)(C)C)C(=O)c2cccc(c2)-c2cccc(c2)C1=O | 17.8 | 50.4 | 16.1 | 59.9 | 38 | 65.5 | 72.1 | – | – | –
CCCCCCCCCCCCNC(=O)C(c1cc(C)ccc1F)N1CCCCN(CC(=O)NC(C)(C)C)C(=O)c2cccc(c2)-c2cccc(c2)C1=O (racemic) | 20.2 | 3.1 | 15.7 | 9.5 | 29 | 31.7 | 15.2 | – | – | –
CCCCCCCCCCCCNC(=O)C(c1ccc(Cl)cc1)N1CCCCN(CC(=O)NC(C)(C)C)C(=O)c2cccc(c2)-c2cccc(c2)C1=O (racemic) | 42.2 | 52.3 | 71.3 | 14.4 | 42.6 | 24.3 | 72.2 | – | – | –
COc1cc([C@@H]2c3cc4c(cc3[C@@H](O[C@@H]3O[C@@H]5CO[C@@H](C)O[C@H]5[C@H](O)[C@H]3O)[C@H]3COC(=O)[C@H]23)OCO4)cc(OC)c1O [ETOPOSIDE] | – | – | – | – | – | – | – | 11.3 | – | –
CCCCCCCCCCCCNC(=O)C(c1ccc(OC)cc1C)N1CCCCN(CC(=O)NC(C)(C)C)C(=O)c2cccc(c2)-c2cccc(c2)C1=O (racemic) | 31.3 | 29 | 23.1 | – | 5.2 | 28 | – | – | – | –
CCCCCCCCCCCNC(=O)CN1CCCCN(CC(=O)NC(C)(C)C)C(=O)c2cccc(c2)-c2cccc(c2)C1=O | 28.1 | 23.2 | 10.8 | 44.4 | 42 | 51 | 5.3 | – | – | –
CCCCCCNC(=O)CN1CCCCN(CC(=O)NC(C)(C)C)C(=O)c2cccc(c2)-c2cccc(c2)C1=O | 40 | 74.9 | 58.5 | 19.3 | 60.1 | 32.4 | – | – | – | –
